Assay results reported in patent publication US8431564B2 (Merck Sharp & Dohme B.V., priority 2009, dated 2013).

target: T1, human FSH receptor (Homo sapiens, UniProt P23945); experiment: Agonistic activity at the human FSH receptor expressed in CHO cells (CRE-luciferase reporter); assay type: cell-based; conditions: CHO cells stably transfected with human FSH receptor and CRE/luciferase reporter; 4 hours incubation; pEC50 is -log EC50; read-out: hFSHRago (CHO luc) pEC50 (converted)
T1 construct: expressed in transfected cells; host or cells: CHO (Chinese Hamster Ovary) cells, stably transfected, cotransfected with CRE-luciferase reporter
T1 sequence (P23945 18-695): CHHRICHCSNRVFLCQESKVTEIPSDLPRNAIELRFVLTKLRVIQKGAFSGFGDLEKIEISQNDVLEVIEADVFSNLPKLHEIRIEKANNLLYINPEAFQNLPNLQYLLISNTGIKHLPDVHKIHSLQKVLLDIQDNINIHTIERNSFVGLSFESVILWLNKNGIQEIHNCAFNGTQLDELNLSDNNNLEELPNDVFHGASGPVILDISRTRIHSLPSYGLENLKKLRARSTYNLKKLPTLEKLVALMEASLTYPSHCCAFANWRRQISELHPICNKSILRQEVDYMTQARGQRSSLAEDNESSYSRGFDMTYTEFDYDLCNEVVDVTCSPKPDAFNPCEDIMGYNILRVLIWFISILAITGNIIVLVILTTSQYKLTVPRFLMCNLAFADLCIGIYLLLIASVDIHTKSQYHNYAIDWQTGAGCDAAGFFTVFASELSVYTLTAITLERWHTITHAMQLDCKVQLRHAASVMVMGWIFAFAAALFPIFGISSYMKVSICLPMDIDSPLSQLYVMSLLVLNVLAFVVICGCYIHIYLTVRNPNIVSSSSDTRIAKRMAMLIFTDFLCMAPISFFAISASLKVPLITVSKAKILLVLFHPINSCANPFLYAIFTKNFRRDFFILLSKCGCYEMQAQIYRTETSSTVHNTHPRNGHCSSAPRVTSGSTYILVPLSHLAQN
Excerpt: The term EC50 means the concentration of the test compound that elicits half-maximal (50%) stimulation compared to the compound's maximally attainable effect. pEC50 is the negative log of EC50. The values can be determined e.g. in a cell line transfected with a FSH receptor gene and cotransfected with a cAMP responsive element/promoter directing the expression of a reporter gene. For the determination a software program such as MathIQ (version 2.0, ID Business Solutions Limited) can be used.
Agonistic activity of the compounds at the human FSH receptor was determined in Chinese Hamster Ovary (CHO) cells stably transfected with the human FSH receptor and cotransfected with a cAMP responsive element (CRE)/promotor directing the expression of a firefly luciferase reporter gene. Binding of the compounds to the Gs protein-coupled FSH receptor will result in an increase of cAMP, which in turn will induce an increased transactivation of the luciferase reporter. Cells (7,500 cells/well of a 384 well plate) were incubated in Dulbecco' minimal essential F12 modified medium (Invitrogen), supplemented with 1 μg/ml bovine insulin, 5 μg/ml human apo-transferrin, 80 U/ml penicillin G and 80 μg/ml streptomycin with the test compounds (concentration between 0.0316 nM and 10.0 μM) in duplicate in a humidified atmosphere (95%) at 5-7% CO2 and 37° C. The final concentration of DMSO was 1%. After 4 hours of incubation, plates were allowed to adjust to room temperature for 1 hour. Then, Luclite (PerkinElmer) solution was added to the wells and cells were allowed to lyse for at least 1 hour at room temperature. Subsequently, luciferase activity was measured in a luminescence counter. The signal is expressed as counts per second (cps). The EC50 (concentration of the test compound that elicits half-maximal (50%) luciferase stimulation compared to the compound's maximally attainable effect) and efficacy values (maximal effect of the test compound as percentage of the maximal effect of recombinant human FSH) of the compounds were determined using the software program MathIQ (version 2.0, ID Business Solutions Limited). pEC50 data (pEC50 is −log EC50) are indicated at the synthesis examples.

Row | SMILES | EC50 [nM]
1 | COc1cc2c(cc1-c1cccc(F)n1)-c1c(-c3cncs3)c3c(n1CC2)C(=O)N(C(C)(C)C)CCOC3 [Compound 11k, 9-tert-butyl-2-(6-fluoropyridin-2-yl)-3-methoxy-14-(1,3-thiazol-5-yl)-5,6,10,11-tetrahydro-9H-[1,4]oxazocino[7′,6′:4,5]pyrrolo[2,1-a]isoquinolin-8(13H)-one] | 13.8
2 | COc1cc2c(cc1-c1cncs1)-c1c(-c3cncs3)c3c(n1CC2)C(=O)N(C(C)(C)C)CCOC3 [Compound 11l, 9-tert-butyl-3-methoxy-2,14-di-1,3-thiazol-5-yl-5,6,10,11-tetrahydro-9H-[1,4]oxazocino[7′,6′:4,5]pyrrolo[2,1-a]isoquinolin-8(13H)-one] | 12.6
3 | COc1cc2c(cc1-c1cccnc1)-c1c(-c3cccs3)c3c(n1CC2)C(=O)N(C)C(C)(C)CC3 [Compound 12l, 9-methyl-2-pyidin3-yl-3-methoxy-10,10-dimethyl-13-(2-thienyl)-5,6,9,10,11,12-hexahydro-8H-azepino[4′,3′:4,5]pyrrolo[2,1-a]isoquinolin-8-one] | 12
4 | COc1cc2c(cc1-c1cccnc1)-c1c(Br)c3c(n1CC2)C(=O)N(C(C)(C)C)CCC3 [Compound 13d, 9-tert-butyl-2-pyridin-3-yl-13-bromo-3-methoxy-5,6,9,10,11,12-hexahydro-8H-azepino[4′,3′:4,5]pyrrolo[2,1-a]isoquinolin-8-one] | 380
5 | COc1cc2c(cc1-c1cccnc1)-c1c(-c3cccnc3)c3c(n1CC2)C(=O)N(C(C)(C)C)CCC3 [Compound 13e, 9-tert-butyl-2,13-di-(pyridin3-yl)-3-methoxy-5,6,9,10,11,12-hexahydro-8H-azepino[4′,3′:4,5]pyrrolo[2,1-a]isoquinolin-8-one] | 42.7
6 | COc1cc2c(cc1-c1cccnc1)-c1c(-c3ncco3)c3c(n1CC2)C(=O)N(C(C)(C)C)CCC3 [Compound 13f] | 15.8
7 | COc1cc2c(cc1OC(C)C)-c1c(-c3cccs3)c3c(n1CC2)C(=O)N(C(C)C)CCNC3 [Compound 14e, 9-isopropyl-3-methoxy-2-isopropoxy-14-(2-thienyl)-5,6,10,11,12,13-hexahydro[1,4]diazocino[6′,7′:4,5]pyrrolo[2,1-a]isoquinolin-8(9H)-one] | 93.3
8 | COc1cc2c(cc1OC(C)C)-c1c(-c3cccs3)c3c(n1CC2)C(=O)N(C(C)C)CCN(C(C)=O)C3 [Compound 14f, 12-acetyl-9-isopropyl-3-methoxy-2-isopropoxy-14-(2-thienyl)-5,6,10,11,12,13-hexahydro[1,4]diazocino[6′,7′:4,5]pyrrolo[2,1-a]isoquinolin-8(9H)-one] | 35.5
9 | CCC(=O)N1CCN(C(C)C)C(=O)c2c(c(-c3cccs3)c3n2CCc2cc(OC)c(OC(C)C)cc2-3)C1 [Compound 14g, 12-propanoyl-9-isopropyl-3-methoxy-2-isopropoxy-14-(2-thienyl)-5,6,10,11,12,13-hexahydro[1,4]diazocino[6′,7′:4,5]pyrrolo[2,1-a]isoquinolin-8(9H)-one] | 219

The next lines start with the values.

Row | EC50 [nM] | SMILES
10 | 617 | COc1cc2c(cc1OC(C)C)-c1c(-c3cccs3)c3c(n1CC2)C(=O)N(C(C)(C)C)C3 [Compound 15f, 9-tert-butyl-2-isopropoxy-3-methoxy-11-(2-thienyl)-5,6,9,10-tetrahydro-8H-pyrrolo[3′,4′:4,5]pyrrolo[2,1-a]isoquinolin-8-one]
11 | 16.2 | COc1cc2c(cc1-c1cccnc1)-c1c(-c3cncs3)c3c(n1CC2)C(=O)N(C(C)(C)C)CCCCC3 [Compound 16n, 2-pyridin-3-yl-9-tert-butyl-3-methoxy-15-(1,3-thiazol-5-yl)-5,6,9,10,11,12,13,14-octahydro-8H-azonino[4′,3′:4,5]pyrrolo[2,1-a]isoquinolin-8-one]
12 | 29.5 | COc1cc2c(cc1-c1cccnc1)-c1c(-c3cscn3)c3c(n1CC2)C(=O)N(C(C)(C)C)CCCCC3 [Compound 16t, 2-pyridin-3-yl-9-tert-butyl-3-methoxy-15-(1,3-thiazol-4-yl)-5,6,9,10,11,12,13,14-octahydro-8H-azonino[4′,3′:4,5]pyrrolo[2,1-a]isoquinolin-8-one]
13 | 4.68 | COc1cc2c(cc1Br)-c1c(-c3cncs3)c3c(n1CC2)C(=O)N(C(C)(C)C)CCCC3 [Compound 17i, 9-tert-butyl-3-methoxy-2-bromo-14-(1,3-thiazol-5-yl)-5,6,10,11,12,13-hexahydroazocino[4′,3′:4,5]pyrrolo[2,1-a]isoquinolin-8(9H)-one]
14 | 0.977 | COc1cc2c(cc1-c1ncco1)-c1c(-c3cncs3)c3c(n1CC2)C(=O)N(C(C)(C)C)CCCC3 [Compound 17j, 9-tert-butyl-3-methoxy-2-(1,3-oxazol-2-yl)-14-(1,3-thiazol-5-yl)-5,6,10,11,12,13-hexahydroazocino[4′,3′:4,5]pyrrolo[2,1-a]isoquinolin-8(9H)-one]
15 | 0.355 | COc1cc2c(cc1-c1cccnc1)-c1c(-c3cncs3)c3c(n1CC2)C(=O)N(C(C)(C)C)CCCC3 [Compound 17k, 9-tert-butyl-3-methoxy-2-pyridin-3-yl-14-(1,3-thiazol-5-yl)-5,6,10,11,12,13-hexahydroazocino[4′,3′:4,5]pyrrolo[2,1-a]isoquinolin-8(9H)-one]
16 | 126 | COc1cc2c(cc1OC(C)C)-c1c(Br)c3c(n1CC2)C(=O)N(C(C)(C)C)CCOC3 [Compound 18d, 9-tert-butyl-3-methoxy-2-isopropoxy-14-bromo-5,6,10,11-tetrahydro-9H-[1,4]oxazocino[7′,6′:4,5]pyrrolo[2,1-a]isoquinolin-8(13H)-one]
17 | 63.1 | COc1cc2c(cc1OC(C)C)-c1c(-c3cccnc3)c3c(n1CC2)C(=O)N(C(C)(C)C)CCOC3 [Compound 18e, 9-tert-butyl-3-methoxy-2-isopropoxy-14-pyridin-3-yl-5,6,10,11-tetrahydro-9H-[1,4]oxazocino[7′,6′:4,5]pyrrolo[2,1-a]isoquinolin-8(13H)-one]
18 | 47.9 | COc1cc2c(cc1OC(C)C)-c1c(-c3ccncc3)c3c(n1CC2)C(=O)N(C(C)(C)C)CCOC3 [Compound 18f, 9-tert-butyl-3-methoxy-2-isopropoxy-14-pyridin-4-yl-5,6,10,11-tetrahydro-9H-[1,4]oxazocino[7′,6′:4,5]pyrrolo[2,1-a]isoquinolin-8(13H)-one]
19 | 20 | COc1cc2c(cc1OC(C)C)-c1c(-c3ccc(F)cc3)c3c(n1CC2)C(=O)N(C(C)(C)C)CCOC3 [Compound 18g]
20 | 12.3 | COc1cc2c(cc1-c1cccnc1)-c1c(Cl)c3c(n1CC2)C(=O)N(C(C)(C)C)CCCC3 [Compound 19f, 9-tert-butyl-3-methoxy-2-pyridin-3-yl-14-chloro-5,6,10,11,12,13-hexahydroazocino[4′,3′:4,5]pyrrolo[2,1-a]isoquinolin-8(9H)-one]
21 | 39.8 | COc1cc2c(cc1N)-c1c(-c3cccs3)c3c(n1CC2)C(=O)N(C(C)(C)C)CCCC3 [Compound 20b, 9-tert-butyl-14-(thien-2-yl)-2-amino-3-methoxy-5,6,10,11,12,13-hexahydroazocino[4′,3′:4,5]pyrrolo[2,1-a]isoquinolin-8(9H)-one]
22 | 0.589 | COc1cc2c(cc1-n1cc(CCO)nn1)-c1c(-c3cccs3)c3c(n1CC2)C(=O)N(C(C)(C)C)CCCC3 [Compound 20d, 9-tert-butyl-14-(thien-2-yl)-2-(4-(2-hydroxyethyl)-1H-1,2,3-triazol-1-yl)-3-methoxy-5,6,10,11,12,13-hexahydroazocino[4′,3′:4,5]pyrrolo[2,1-a]isoquinolin-8(9H)-one]
